In general, IC50 refers to the concentration that inhibits the measured activity by half.

Active and inactive are the calls of the source. The calls are words filed in the database; no cut-off is given here. Where only a bound is given, the exact number is not on record here.

Chain of Phosphatidylinositol 4,5-bisphosphate 3-kinase catalytic subunit gamma isoform (P48736 whole entry, canonical isoform): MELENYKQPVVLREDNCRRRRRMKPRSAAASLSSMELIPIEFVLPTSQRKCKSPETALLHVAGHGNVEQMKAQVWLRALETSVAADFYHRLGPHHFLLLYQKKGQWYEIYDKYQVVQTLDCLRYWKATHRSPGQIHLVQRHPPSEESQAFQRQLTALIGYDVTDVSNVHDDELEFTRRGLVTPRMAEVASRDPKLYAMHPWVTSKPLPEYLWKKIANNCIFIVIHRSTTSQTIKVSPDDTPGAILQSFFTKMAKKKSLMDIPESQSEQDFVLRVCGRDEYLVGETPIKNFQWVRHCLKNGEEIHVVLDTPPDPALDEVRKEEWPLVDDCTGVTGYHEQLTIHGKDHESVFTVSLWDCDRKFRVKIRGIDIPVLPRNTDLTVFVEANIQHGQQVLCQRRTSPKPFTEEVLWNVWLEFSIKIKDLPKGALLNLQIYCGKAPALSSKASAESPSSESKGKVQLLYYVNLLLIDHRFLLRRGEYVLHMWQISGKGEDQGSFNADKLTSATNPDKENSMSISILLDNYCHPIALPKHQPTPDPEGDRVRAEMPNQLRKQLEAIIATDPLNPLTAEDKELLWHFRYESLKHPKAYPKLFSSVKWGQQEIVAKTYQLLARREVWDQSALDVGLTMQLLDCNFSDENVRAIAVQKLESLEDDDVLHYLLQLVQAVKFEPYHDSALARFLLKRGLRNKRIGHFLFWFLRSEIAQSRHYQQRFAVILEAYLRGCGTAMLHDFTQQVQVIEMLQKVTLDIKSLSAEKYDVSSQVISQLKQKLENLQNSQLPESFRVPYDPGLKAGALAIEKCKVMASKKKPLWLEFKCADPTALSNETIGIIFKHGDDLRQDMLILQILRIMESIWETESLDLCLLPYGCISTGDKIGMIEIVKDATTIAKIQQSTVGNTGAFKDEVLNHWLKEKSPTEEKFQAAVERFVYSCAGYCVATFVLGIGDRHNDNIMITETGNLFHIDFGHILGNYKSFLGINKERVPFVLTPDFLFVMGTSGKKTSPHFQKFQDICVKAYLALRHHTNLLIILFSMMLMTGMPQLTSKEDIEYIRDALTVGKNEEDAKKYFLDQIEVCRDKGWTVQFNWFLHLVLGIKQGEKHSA
Chain of Phosphatidylinositol 4,5-bisphosphate 3-kinase catalytic subunit beta isoform (P42338 whole entry, canonical isoform): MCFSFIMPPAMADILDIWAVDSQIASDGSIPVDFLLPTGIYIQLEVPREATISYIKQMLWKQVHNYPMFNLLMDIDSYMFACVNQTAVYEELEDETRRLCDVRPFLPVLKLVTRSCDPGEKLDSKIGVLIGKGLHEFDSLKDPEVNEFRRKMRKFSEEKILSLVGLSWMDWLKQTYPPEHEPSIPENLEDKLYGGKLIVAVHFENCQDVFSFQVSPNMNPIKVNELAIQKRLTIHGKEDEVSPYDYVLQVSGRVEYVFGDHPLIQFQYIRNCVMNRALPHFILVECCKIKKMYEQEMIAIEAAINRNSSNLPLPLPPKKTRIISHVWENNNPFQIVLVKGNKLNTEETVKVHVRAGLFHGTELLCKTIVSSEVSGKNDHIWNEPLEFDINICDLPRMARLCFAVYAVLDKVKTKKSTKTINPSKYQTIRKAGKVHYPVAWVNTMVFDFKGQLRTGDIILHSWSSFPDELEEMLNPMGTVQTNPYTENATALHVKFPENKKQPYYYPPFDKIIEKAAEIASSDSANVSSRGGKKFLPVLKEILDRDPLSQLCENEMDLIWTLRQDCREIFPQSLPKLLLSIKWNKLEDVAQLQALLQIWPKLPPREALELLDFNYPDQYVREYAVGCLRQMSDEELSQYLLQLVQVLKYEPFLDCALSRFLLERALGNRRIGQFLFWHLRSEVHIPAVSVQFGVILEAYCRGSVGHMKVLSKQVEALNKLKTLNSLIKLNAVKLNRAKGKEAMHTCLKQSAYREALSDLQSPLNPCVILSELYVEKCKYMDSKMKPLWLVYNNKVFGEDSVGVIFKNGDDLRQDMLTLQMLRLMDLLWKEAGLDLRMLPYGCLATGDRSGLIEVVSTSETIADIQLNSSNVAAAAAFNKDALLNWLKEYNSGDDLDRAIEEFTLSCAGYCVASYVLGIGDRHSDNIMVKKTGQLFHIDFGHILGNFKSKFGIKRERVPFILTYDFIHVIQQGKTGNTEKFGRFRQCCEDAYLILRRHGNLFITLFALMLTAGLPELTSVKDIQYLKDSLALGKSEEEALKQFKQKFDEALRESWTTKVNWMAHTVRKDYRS

One experiment is filed under the species Homo sapiens. Nature of the experiment: Selectivity index, ratio of IC50 for inhibition of PI3Kgamma (unknown origin) to IC50 for inhibition of PI3Kalpha (unknown origin).
Details: not given
In the case of `O=C(O)c1ccc(CNc2nc3ccc(-c4nc(N5CCOCC5)nc(N5CCOCC5)n4)cc3o2)cc1`, the Ratio IC50 is 581.

The species entered for the next experiment is Homo sapiens. Put plainly: Selectivity index, ratio of IC50 for inhibition of PI3Kbeta (unknown origin) to IC50 for inhibition of PI3Kalpha (unknown origin).
Details: not given
`O=C(O)c1ccc(CNc2nc3ccc(-c4nc(N5CCOCC5)nc(N5CCOCC5)n4)cc3o2)cc1`: the Ratio IC50 was 16.

For the next experiment, the species on record is Homo sapiens. Nature of the experiment: Selectivity index, ratio of IC50 for inhibition of PI3Kdelta (unknown origin) to IC50 for inhibition of PI3Kalpha (unknown origin).
Details: not given
Regarding `O=C(O)c1ccc(CNc2nc3ccc(-c4nc(N5CCOCC5)nc(N5CCOCC5)n4)cc3o2)cc1`, the Ratio IC50 turned out to be 8.5.

Another experiment addresses T1, Phosphatidylinositol 4,5-bisphosphate 3-kinase catalytic subunit delta isoform (Homo sapiens, UniProt O00329).
T1 sequence (O00329 whole entry): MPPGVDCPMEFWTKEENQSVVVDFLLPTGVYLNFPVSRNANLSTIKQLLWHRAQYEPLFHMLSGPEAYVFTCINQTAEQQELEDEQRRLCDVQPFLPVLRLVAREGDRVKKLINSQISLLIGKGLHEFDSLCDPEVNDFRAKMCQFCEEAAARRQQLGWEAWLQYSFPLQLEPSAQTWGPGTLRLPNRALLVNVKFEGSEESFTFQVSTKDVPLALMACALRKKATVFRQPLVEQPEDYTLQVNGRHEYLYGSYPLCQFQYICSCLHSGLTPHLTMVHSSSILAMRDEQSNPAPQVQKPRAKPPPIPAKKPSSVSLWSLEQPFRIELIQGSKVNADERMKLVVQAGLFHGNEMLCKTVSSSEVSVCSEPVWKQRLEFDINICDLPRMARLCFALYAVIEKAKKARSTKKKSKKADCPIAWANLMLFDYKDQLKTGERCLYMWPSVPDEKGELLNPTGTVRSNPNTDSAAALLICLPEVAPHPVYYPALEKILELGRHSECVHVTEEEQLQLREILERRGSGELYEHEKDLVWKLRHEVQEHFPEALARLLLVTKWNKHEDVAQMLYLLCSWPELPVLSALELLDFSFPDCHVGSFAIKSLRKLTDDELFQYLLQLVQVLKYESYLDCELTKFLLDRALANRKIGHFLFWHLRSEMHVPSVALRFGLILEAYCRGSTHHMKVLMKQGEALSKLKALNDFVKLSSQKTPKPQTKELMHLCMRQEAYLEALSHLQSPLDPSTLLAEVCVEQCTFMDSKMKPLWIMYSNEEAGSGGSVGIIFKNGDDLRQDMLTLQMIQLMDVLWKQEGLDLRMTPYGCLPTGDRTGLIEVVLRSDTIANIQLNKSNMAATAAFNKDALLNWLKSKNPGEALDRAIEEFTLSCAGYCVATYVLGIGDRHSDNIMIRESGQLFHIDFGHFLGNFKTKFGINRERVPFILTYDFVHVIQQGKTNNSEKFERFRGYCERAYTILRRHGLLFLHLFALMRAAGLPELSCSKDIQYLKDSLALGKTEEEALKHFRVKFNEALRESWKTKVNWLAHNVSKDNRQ
Put plainly: Inhibition of PI3Kdelta (unknown origin) in presence of [33P]-ATP incubated for 2 hrs by hotspot kinase assay.
Details: not given
In the case of `O=C(O)c1ccc(CNc2nc3ccc(-c4nc(N5CCOCC5)nc(N5CCOCC5)n4)cc3o2)cc1`, the IC50 was determined as 51 nM.

The subject of a further experiment is MGC-803. Put plainly: Antiproliferative activity against human MGC-803 cells assessed as inhibition of cell growth incubated for 72 hrs by CCK8 assay. The experiment is classed as functional, cell-based. The following applies: MGC-803, 72 h. For orientation: Tetrazolium assays rely on reduction of a dye to a coloured formazan, in cell work by metabolically active cells.
`Cc1nc(NC(=O)N2CCC[C@H]2C(N)=O)sc1-c1ccnc(C(C)(C)C(F)(F)F)c1` [ALPELISIB]: the IC50 was 430 nM.

For the next experiment, the system named is MCF7. Nature of the experiment: Antiproliferative activity against human MCF7 cells assessed as inhibition of cell growth incubated for 72 hrs by CCK8 assay. Format: functional, cell-based. The following applies: MCF7, 72 h.
As to `Cc1nc(NC(=O)N2CCC[C@H]2C(N)=O)sc1-c1ccnc(C(C)(C)C(F)(F)F)c1` [ALPELISIB], the concentration for half-maximal inhibition (IC50) came to 430 nM.

The target of a further experiment is Phosphatidylinositol 4,5-bisphosphate 3-kinase catalytic subunit alpha isoform (Homo sapiens, UniProt P42336). Put plainly: Inhibition of PI3Kalpha (unknown origin) using PIP2 as substrate in presence of ATP measured after 1 hr by ADP-Glo assay.
Chain of Phosphatidylinositol 4,5-bisphosphate 3-kinase catalytic subunit alpha isoform (P42336 whole entry, canonical isoform): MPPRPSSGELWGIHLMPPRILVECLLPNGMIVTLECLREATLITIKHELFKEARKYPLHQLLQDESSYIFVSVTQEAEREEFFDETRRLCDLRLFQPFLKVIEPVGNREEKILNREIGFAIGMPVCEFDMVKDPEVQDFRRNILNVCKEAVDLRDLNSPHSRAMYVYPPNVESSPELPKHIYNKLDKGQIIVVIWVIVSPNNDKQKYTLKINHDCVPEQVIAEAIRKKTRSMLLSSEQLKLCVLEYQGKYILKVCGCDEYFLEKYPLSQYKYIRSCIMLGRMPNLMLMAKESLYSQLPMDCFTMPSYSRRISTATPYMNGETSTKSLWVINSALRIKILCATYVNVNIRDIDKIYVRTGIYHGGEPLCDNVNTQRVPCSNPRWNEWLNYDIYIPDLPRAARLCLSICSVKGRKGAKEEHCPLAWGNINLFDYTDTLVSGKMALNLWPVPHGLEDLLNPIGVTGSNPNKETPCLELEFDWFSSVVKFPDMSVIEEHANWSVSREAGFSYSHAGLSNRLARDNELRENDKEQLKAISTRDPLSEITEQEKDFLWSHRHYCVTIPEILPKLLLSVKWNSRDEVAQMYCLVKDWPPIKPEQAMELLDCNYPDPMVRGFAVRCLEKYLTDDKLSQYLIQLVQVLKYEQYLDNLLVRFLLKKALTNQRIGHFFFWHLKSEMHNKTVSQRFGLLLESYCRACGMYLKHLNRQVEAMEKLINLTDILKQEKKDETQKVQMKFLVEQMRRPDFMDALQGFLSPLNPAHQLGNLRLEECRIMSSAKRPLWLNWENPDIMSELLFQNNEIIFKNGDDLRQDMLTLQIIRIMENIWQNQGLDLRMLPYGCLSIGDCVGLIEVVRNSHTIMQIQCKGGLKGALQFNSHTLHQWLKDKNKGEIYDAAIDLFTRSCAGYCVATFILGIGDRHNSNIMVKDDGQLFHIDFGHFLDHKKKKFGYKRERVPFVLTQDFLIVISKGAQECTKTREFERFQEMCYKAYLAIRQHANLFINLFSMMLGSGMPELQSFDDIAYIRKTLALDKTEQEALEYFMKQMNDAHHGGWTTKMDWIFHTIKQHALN
Details: not given
As to `CC(=O)Nc1nc2ccc(-c3nc(N4CCOCC4)nc(N4CCOCC4)n3)cc2s1`, the IC50 was determined as 8750 nM. On to `Nc1nc2ccc(-c3nc(Nc4ccc5c(c4)OCO5)nc(Nc4ccc5c(c4)OCO5)n3)cc2o1`, for which the half-inhibitory concentration (IC50) is > 10000 nM. On the same count and under the same terms, the same measure for `O=C(O)c1ccc(CNc2nc3ccc(-c4nc(N5CCOCC5)nc(N5CCOCC5)n4)cc3o2)cc1`: 6 nM.

Turning to `COc1ccc(CNc2nc3cc(-c4nc(N5CCOCC5)nc(N5CCOCC5)n4)ccc3o2)cc1`, the IC50 turned out to be 81 nM.

With `c1ccc(CNc2nc3cc(-c4nc(N5CCOCC5)nc(N5CCOCC5)n4)ccc3o2)cc1`, the IC50 stood at 63 nM. With `CC(=O)N1CCN(c2nc(-c3ccc4nc(N)sc4c3)nc(N3CCOCC3)n2)CC1`, the half-inhibitory concentration (IC50) stood at 497 nM. For `Nc1nc2ccc(-c3nc(N4CCOCC4)nc(N4CCOCC4)n3)cc2s1`, the IC50 came out at 357 nM. For the compound `c1cc2oc(NC3CCCC3)nc2cc1-c1nc(N2CCOCC2)nc(N2CCOCC2)n1`, the IC50 was determined as 2820 nM. In the case of `COC(=O)c1ccc(CNc2nc3ccc(-c4nc(N5CCN(C(C)=O)CC5)nc(N5CCN(C(C)=O)CC5)n4)cc3o2)cc1`, the concentration for half-maximal inhibition (IC50) was > 10000 nM.

For the compound `CN(C)c1nc2ccc(-c3nc(N4CCOCC4)nc(N4CCN(S(C)(=O)=O)CC4)n3)cc2s1`, the IC50 was > 10000 nM. Same read-out and setting: for `NC(=O)c1ccc(CNc2nc3cc(-c4nc(N5CCOCC5)nc(N5CCOCC5)n4)ccc3o2)cc1` the value was 47 nM; for `CC(=O)N1CCN(c2nc(-c3ccc4oc(N)nc4c3)nc(N3CCOCC3)n2)CC1`, 23 nM; for `CN(C)c1nc2ccc(-c3nc(Nc4ccc(C(F)(F)F)cc4)nc(N4CCOCC4)n3)cc2s1`, > 10000 nM. Same read-out and setting: for `CC(C)(C)OC(=O)N1CCN(c2nc(-c3ccc4oc(N)nc4c3)nc(N3CCOCC3)n2)CC1` the value was 259 nM; for `CC(=O)Nc1nc2cc(-c3nc(N4CCOCC4)nc(N4CCOCC4)n3)ccc2o1`, 66 nM; for `CC(=O)N1CCN(c2nc(-c3ccc4nc(N)oc4c3)nc(N3CCN(C(C)=O)CC3)n2)CC1`, > 10000 nM. Still for that read-out and setting: the same measure for `CS(=O)(=O)N1CCN(c2nc(-c3ccc4nc(N)oc4c3)nc(N3CCN(S(C)(=O)=O)CC3)n2)CC1`: > 10000 nM; for `Nc1nc2cc(-c3nc(N4CCNCC4)nc(N4CCOCC4)n3)ccc2o1`: 569 nM; for `O=C(Nc1nc2cc(-c3nc(N4CCOCC4)nc(N4CCOCC4)n3)ccc2o1)C1CCCCC1`: 7450 nM. For the compound `O=[N+]([O-])c1ccc(CNc2nc3cc(-c4nc(N5CCOCC5)nc(N5CCOCC5)n4)ccc3o2)cc1`, the IC50 was determined as 72 nM. Turning to `Nc1nc2cc(-c3nc(NC4CCOCC4)nc(N4CCOCC4)n3)ccc2o1`, the IC50 amounted to 4240 nM. Same read-out and setting: for `CC(C)c1ccc(CNc2nc3cc(-c4nc(N5CCOCC5)nc(N5CCOCC5)n4)ccc3o2)cc1` the value was 311 nM. `CC(C)(C)OC(=O)N1CCN(c2nc(-c3ccc4nc(N)sc4c3)nc(N3CCOCC3)n2)CC1`: the 50% inhibitory concentration (IC50) amounted to 432 nM. As for `Nc1nc2cc(-c3nc(Nc4cccc(C(F)(F)F)c4)nc(N4CCOCC4)n3)ccc2o1`, the IC50 is 1410 nM. As to `COC(=O)c1ccc(CNc2nc3cc(-c4nc(N5CCOCC5)nc(N5CCOCC5)n4)ccc3o2)cc1`, the half-maximal inhibitory concentration (IC50) was 99 nM. For the compound `CC(C)Nc1nc2cc(-c3nc(N4CCOCC4)nc(N4CCOCC4)n3)ccc2o1`, the half-maximal inhibitory concentration (IC50) turned out to be 2770 nM.

On to `N#Cc1ccc(CNc2nc3cc(-c4nc(N5CCOCC5)nc(N5CCOCC5)n4)ccc3o2)cc1`, for which the 50% inhibitory concentration (IC50) came to 86 nM.

As for `CS(=O)(=O)N1CCN(c2nc(-c3ccc4oc(N)nc4c3)nc(N3CCOCC3)n2)CC1`, the IC50 was found to be 32 nM.

For `Nc1nc2cc(-c3nc(NC4CCC(C(F)(F)F)CC4)nc(N4CCOCC4)n3)ccc2o1` (stereo not drawn), the IC50 worked out at 703 nM. Same read-out and setting: for `Nc1nc2ccc(-c3nc(N4CCOCC4)nc(N4CCC(C(F)(F)F)CC4)n3)cc2s1` the value was 5360 nM; for `CC(C)N1CCN(c2nc(-c3ccc4oc(N)nc4c3)nc(N3CCOCC3)n2)CC1`, 1050 nM. Consider `CN(C)c1nc2ccc(-c3nc(N4CCNCC4)nc(N4CCOCC4)n3)cc2s1`, for which the IC50 is > 10000 nM. Still for that read-out and setting: the same measure for `CC(=O)N1CCN(c2nc(-c3ccc4nc(NCc5ccc(C(=O)O)cc5)oc4c3)nc(N3CCN(C(C)=O)CC3)n2)CC1`: > 10000 nM; for `FC(F)(F)c1ccc(CNc2nc3cc(-c4nc(N5CCOCC5)nc(N5CCOCC5)n4)ccc3o2)cc1`: 300 nM. `CC(C)C(=O)Nc1nc2cc(-c3nc(N4CCOCC4)nc(N4CCOCC4)n3)ccc2o1`: the IC50 was determined as 397 nM. Consider `CN(C)c1nc2ccc(-c3nc(N4CCOCC4)nc(N4CCOCC4)n3)cc2s1`, for which the concentration for half-maximal inhibition (IC50) was > 10000 nM. For the compound `CCN1CCN(c2nc(-c3ccc4oc(N)nc4c3)nc(N3CCOCC3)n2)CC1`, the IC50 turned out to be 598 nM. Turning to `CN(C)c1nc2cc(-c3nc(N4CCOCC4)nc(N4CCOCC4)n3)ccc2o1`, the IC50 was found to be 2220 nM.

In the next experiment the test system is MGC-803. Nature of the experiment: Antitumor activity against human MGC-803 cells xenografted in BALB/c nude mouse assessed as tumor growth inhibition at 30 mg/kg, po administered every day for 3 weeks. The experiment is classed as functional. As to conditions: MGC-803, 504 h, read-out: TGI. A general note: Xenograft models place foreign cells or tissue in a host animal.
With `CC(=O)O[C@H]1C(=O)[C@@]2(C)[C@H]([C@H](OC(=O)c3ccccc3)[C@]3(O)C[C@H](OC(=O)[C@H](O)[C@@H](NC(=O)c4ccccc4)c4ccccc4)C(C)=C1C3(C)C)[C@]1(OC(C)=O)CO[C@@H]1C[C@@H]2O` [PACLITAXEL], the inhibition in vivo at 30 mg/kg was 60.3%.

The next experiment concerns MGC-803. Nature of the experiment: Antitumor activity against human MGC-803 cells xenografted in BALB/c nude mouse assessed as reduction in tumor volume at 10 mg/kg, ip administered every day for 3 weeks by vernier caliper method. Format: functional, organism-based.
Details: not given
Regarding `CC(=O)O[C@H]1C(=O)[C@@]2(C)[C@H]([C@H](OC(=O)c3ccccc3)[C@]3(O)C[C@H](OC(=O)[C@H](O)[C@@H](NC(=O)c4ccccc4)c4ccccc4)C(C)=C1C3(C)C)[C@]1(OC(C)=O)CO[C@@H]1C[C@@H]2O` [PACLITAXEL], the result was Active.

Another experiment concerns the target Phosphatidylinositol 4,5-bisphosphate 3-kinase catalytic subunit beta isoform (Homo sapiens, UniProt P42338). Put plainly: Inhibition of PI3Kbeta (unknown origin) in presence of [33P]-ATP incubated for 2 hrs by hotspot kinase assay.
Details: not given
On to `O=C(O)c1ccc(CNc2nc3ccc(-c4nc(N5CCOCC5)nc(N5CCOCC5)n4)cc3o2)cc1`, for which the IC50 came out at 100 nM.

Another experiment has as its target Phosphatidylinositol 4,5-bisphosphate 3-kinase catalytic subunit gamma isoform (Homo sapiens, UniProt P48736).
Details: not given
`O=C(O)c1ccc(CNc2nc3ccc(-c4nc(N5CCOCC5)nc(N5CCOCC5)n4)cc3o2)cc1` registered an IC50 of 3490 nM.

Source of the values: ChEMBL document CHEMBL5143740, “Discovery of Novel Phosphoinositide-3-Kinase α Inhibitors with High Selectivity, Excellent Bioavailability, and Long-Acting Efficacy for Gastric Cancer” (J Med Chem, 2022).
